Legend:
Format in all cases: functional
KM12 = assay: Growth inhibition of human KM12 cells assessed as cell growth at 10^-6 M by sulforhodamine B assay; settings: read-out: Activity
[1] = Growth inhibition of human NCI-ADR-RES cells by sulforhodamine B assay
HOP-92 = assay: Growth inhibition of human HOP92 cells assessed as cell growth at 10^-8 M by sulforhodamine B assay; settings: read-out: Activity
HOP-62 = assay: Growth inhibition of human HOP62 cells assessed as cell growth at 10^-6 M by sulforhodamine B assay; settings: read-out: Activity
NCI-H522 = assay: Growth inhibition of human NCI-H522 cells assessed as cell growth at 10^-4 M by sulforhodamine B assay; settings: read-out: Activity
BT-549 = assay: Growth inhibition of human BT549 cells assessed as cell growth at 10^-6 M by sulforhodamine B assay; settings: read-out: Activity
CCRF-CEM = assay: Growth inhibition of human CCRF-CEM cells by sulforhodamine B assay
HL-60(TB) = assay: Growth inhibition of human HL-60(TB) cells by sulforhodamine B assay
SK-MEL-2 = assay: Growth inhibition of human SK-MEL-2 cells assessed as cell growth at 10^-4 M by sulforhodamine B assay; settings: read-out: Activity
UACC-257 = assay: Growth inhibition of human UACC257 cells assessed as cell growth at 10^-7 M by sulforhodamine B assay; settings: read-out: Activity
RPMI-8226 = assay: Growth inhibition of human RPMI8226 cells assessed as cell growth at 10^-8 M by sulforhodamine B assay; settings: read-out: Activity
SF-268 = assay: Growth inhibition of human SF268 cells assessed as cell growth at 10^-4 M by sulforhodamine B assay; settings: read-out: Activity
UACC-62 = assay: Growth inhibition of human UACC62 cells by sulforhodamine B assay
MOLT-4 = assay: Growth inhibition of human MOLT4 cells assessed as cell growth at 10^-6 M by sulforhodamine B assay; settings: read-out: Activity
Malme-3M = assay: Growth inhibition of human MALME-3M cells assessed as cell growth at 10^-4 M by sulforhodamine B assay; settings: read-out: Activity
IGROV-1 = assay: Growth inhibition of human IGROV1 cells by sulforhodamine B assay
SK-MEL-5 = assay: Growth inhibition of human SK-MEL-5 cells assessed as cell growth at 10^-8 M by sulforhodamine B assay; settings: read-out: Activity
LOX IMVI = assay: Growth inhibition of human LOXIMVI cells assessed as cell growth at 10^-8 M by sulforhodamine B assay; settings: read-out: Activity
OVCAR-3 = assay: Growth inhibition of human OVCAR3 cells by sulforhodamine B assay
[2] = Growth inhibition of human Hs 578T cells by sulforhodamine B assay
SK-MEL-28 = assay: Growth inhibition of human SK-MEL-28 cells assessed as cell growth at 10^-7 M by sulforhodamine B assay; settings: read-out: Activity
NCI-H23 = assay: Growth inhibition of human NCI-H23 cells by sulforhodamine B assay
NCI-H226 = assay: Growth inhibition of human NCI-H226 cells assessed as cell growth at 10^-6 M by sulforhodamine B assay; settings: read-out: Activity
786-0 = assay: Growth inhibition of human 786-0 cells assessed as cell growth at 10^-6 M by sulforhodamine B assay; settings: read-out: Activity
ACHN [3] = assay: Growth inhibition of human ACHN cells assessed as cell growth at 10^-7 M by sulforhodamine B assay; settings: read-out: Activity
[4] = Growth inhibition of human NCI-ADR-RES cells assessed as cell growth at 10^-8 M by sulforhodamine B assay; settings: read-out: Activity
PC-3 = assay: Growth inhibition of human PC3 cells assessed as cell growth at 10^-4 M by sulforhodamine B assay; settings: read-out: Activity
SR = assay: Growth inhibition of human SR cells assessed as cell growth at 10^-6 M by sulforhodamine B assay; settings: read-out: Activity
A498 = assay: Growth inhibition of human A498 cells assessed as cell growth at 10^-8 M by sulforhodamine B assay; settings: read-out: Activity
SN12C = assay: Growth inhibition of human SN12C cells assessed as cell growth at 10^-4 M by sulforhodamine B assay; settings: read-out: Activity
ACHN [5] = assay: Growth inhibition of human ACHN cells assessed as cell growth at 10^-8 M by sulforhodamine B assay; settings: read-out: Activity
[6] = read-out: LC50 (the source's name)
[7] = read-out: pLC50 (the source's name) (converted)

CC1(C)C[C@@H](O)[C@]2(C(=O)O)CC[C@]3(C)C(=CC[C@@H]4[C@@]5(C)C/C(=C\C=C\c6ccccc6)C(=O)C(C)(C)[C@@H]5CC[C@]43C)[C@@H]2C1
growth at 1 µM (KM12): 92%
GI50 ([1]; read-out: GI50): 3.29 µM
CC50 [1, 6]: 43.2 µM
TGI ([1]; read-out: TGI): 14.1 µM
GI50 ([1]; read-out: pGI50 (converted)): 3.31 µM
CC50 [1, 7]: 43.7 µM
TGI ([1]; read-out: pTGI (converted)): 14.1 µM
growth at 0.01 µM (HOP-92): 99%
growth at 1 µM (HOP-62): 97%
growth at 100 µM (NCI-H522): -86%
growth at 1 µM (BT-549): 100%
GI50 (CCRF-CEM; read-out: GI50): 2.79 µM
CC50 (CCRF-CEM; [6]): > 100 µM
TGI (CCRF-CEM; read-out: TGI): 8.51 µM
GI50 (CCRF-CEM; read-out: pGI50 (converted)): 2.82 µM
CC50 (CCRF-CEM; [7]): > 100 µM
TGI (CCRF-CEM; read-out: pTGI (converted)): 8.51 µM
GI50 (HL-60(TB); read-out: GI50): 2.92 µM
CC50 (HL-60(TB); [6]): > 100 µM
TGI (HL-60(TB); read-out: TGI): 6.89 µM
GI50 (HL-60(TB); read-out: pGI50 (converted)): 2.88 µM
CC50 (HL-60(TB); [7]): > 100 µM
TGI (HL-60(TB); read-out: pTGI (converted)): 6.92 µM
growth at 100 µM (SK-MEL-2): -72%
growth at 0.1 µM (UACC-257): 92%
growth at 0.01 µM (RPMI-8226): 98%
growth at 100 µM (SF-268): -83%
GI50 (UACC-62; read-out: GI50): 1.76 µM
CC50 (UACC-62; [6]): 7.84 µM
TGI (UACC-62; read-out: TGI): 3.71 µM
GI50 (UACC-62; read-out: pGI50 (converted)): 1.78 µM
CC50 (UACC-62; [7]): 7.76 µM
TGI (UACC-62; read-out: pTGI (converted)): 3.72 µM
growth at 1 µM (MOLT-4): 89%
growth at 100 µM (Malme-3M): -60%
GI50 (IGROV-1; read-out: GI50): 4.14 µM
CC50 (IGROV-1; [6]): 73.8 µM
TGI (IGROV-1; read-out: TGI): 14.4 µM
GI50 (IGROV-1; read-out: pGI50 (converted)): 4.17 µM
CC50 (IGROV-1; [7]): 74.1 µM
TGI (IGROV-1; read-out: pTGI (converted)): 14.5 µM
growth at 0.01 µM (SK-MEL-5): 99%
growth at 0.01 µM (LOX IMVI): 97%
GI50 (OVCAR-3; read-out: GI50): 2.04 µM
CC50 (OVCAR-3; [6]): 14.2 µM
TGI (OVCAR-3; read-out: TGI): 4.81 µM
GI50 (OVCAR-3; read-out: pGI50 (converted)): 2.04 µM
CC50 (OVCAR-3; [7]): 14.1 µM
TGI (OVCAR-3; read-out: pTGI (converted)): 4.79 µM
GI50 ([2]; read-out: GI50): 3.29 µM
CC50 [2, 6]: > 100 µM
TGI ([2]; read-out: TGI): 20.6 µM
GI50 ([2]; read-out: pGI50 (converted)): 3.31 µM
CC50 [2, 7]: > 100 µM
TGI ([2]; read-out: pTGI (converted)): 20.4 µM
growth at 0.1 µM (SK-MEL-28): 102%
GI50 (NCI-H23; read-out: GI50): 3.28 µM
CC50 (NCI-H23; [6]): 43.2 µM
TGI (NCI-H23; read-out: TGI): 12.3 µM
GI50 (NCI-H23; read-out: pGI50 (converted)): 3.31 µM
CC50 (NCI-H23; [7]): 43.7 µM
TGI (NCI-H23; read-out: pTGI (converted)): 12.3 µM
growth at 1 µM (NCI-H226): 83%
growth at 1 µM (786-0): 96%
growth at 0.1 µM (ACHN [3]): 98%
growth at 0.01 µM [4]: 107%
growth at 100 µM (PC-3): -67%
growth at 1 µM (SR): 94%
growth at 0.01 µM (A498): 82%
growth at 100 µM (SN12C): -92%
growth at 0.01 µM (ACHN [5]): 97%

From ChEMBL document CHEMBL2413072, “Synthesis and in vitro anticancer studies of novel C-2 arylidene congeners of lantadenes” (2013)
